Experimental data reported in ChEMBL document CHEMBL5678818, “Discovery of potent SOS1 inhibitors that block RAS activation via disruption of the RAS-SOS1 interaction” (Proc Natl Acad Sci U S A, 2019).

Legend:
[1] = target: Calcium/calmodulin-dependent protein kinase kinase 1 (Homo sapiens) (UniProt Q8N5S9); test: Inhibition of CAMKK1 (unknown origin) assessed as residual activity at 100 nM by KINOMEscan analysis relative to control
[2] = target: Non-receptor tyrosine-protein kinase TYK2 (Homo sapiens) (UniProt P29597); test: Inhibition of TYK2 JH1 catalytic domain (unknown origin) assessed as residual activity at 100 nM by KINOMEscan analysis relative to control
Non-receptor tyrosine-protein kinase TYK2 (Homo sapiens), sequence (P29597 whole entry, the tested form may be a part): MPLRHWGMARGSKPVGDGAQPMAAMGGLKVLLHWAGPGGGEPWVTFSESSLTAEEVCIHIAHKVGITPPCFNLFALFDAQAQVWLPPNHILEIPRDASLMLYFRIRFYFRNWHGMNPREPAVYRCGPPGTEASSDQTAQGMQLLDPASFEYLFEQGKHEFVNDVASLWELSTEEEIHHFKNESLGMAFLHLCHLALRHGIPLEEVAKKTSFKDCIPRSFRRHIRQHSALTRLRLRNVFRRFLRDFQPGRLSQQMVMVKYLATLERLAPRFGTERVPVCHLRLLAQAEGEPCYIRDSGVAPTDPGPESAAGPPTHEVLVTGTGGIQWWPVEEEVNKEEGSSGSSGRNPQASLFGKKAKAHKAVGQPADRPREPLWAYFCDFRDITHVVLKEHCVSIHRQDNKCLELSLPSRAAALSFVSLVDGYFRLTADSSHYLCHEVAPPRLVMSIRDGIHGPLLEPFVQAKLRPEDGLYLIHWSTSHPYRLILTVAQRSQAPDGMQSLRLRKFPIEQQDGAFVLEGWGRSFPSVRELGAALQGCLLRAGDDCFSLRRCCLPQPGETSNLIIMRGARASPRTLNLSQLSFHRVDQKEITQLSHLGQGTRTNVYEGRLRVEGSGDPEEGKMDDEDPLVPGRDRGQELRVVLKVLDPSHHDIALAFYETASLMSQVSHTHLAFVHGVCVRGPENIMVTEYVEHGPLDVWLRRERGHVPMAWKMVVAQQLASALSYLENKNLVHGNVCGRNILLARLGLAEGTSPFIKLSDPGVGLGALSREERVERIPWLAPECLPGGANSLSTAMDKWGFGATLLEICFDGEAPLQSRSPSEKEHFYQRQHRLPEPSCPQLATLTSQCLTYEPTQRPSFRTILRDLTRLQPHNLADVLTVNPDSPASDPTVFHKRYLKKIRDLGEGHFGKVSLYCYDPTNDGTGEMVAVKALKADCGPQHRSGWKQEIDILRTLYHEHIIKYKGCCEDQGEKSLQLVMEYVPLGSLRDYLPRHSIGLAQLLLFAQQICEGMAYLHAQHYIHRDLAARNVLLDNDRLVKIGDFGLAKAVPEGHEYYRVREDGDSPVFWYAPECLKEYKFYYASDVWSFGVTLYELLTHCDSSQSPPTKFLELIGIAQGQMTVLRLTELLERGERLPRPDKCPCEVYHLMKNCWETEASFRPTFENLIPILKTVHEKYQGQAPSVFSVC

[3] = target: Serine/threonine-protein kinase Chk2 (Homo sapiens) (UniProt O96017); test: Inhibition of CHEK2 (unknown origin) assessed as residual activity at 100 nM by KINOMEscan analysis relative to control
[4] = target: Ribosomal protein S6 kinase alpha-2 (Homo sapiens) (UniProt Q15349); test: Inhibition of C-terminal RSK3 […] domain 2 (unknown origin) assessed as residual activity at 100 nM by KINOMEscan analysis relative to control
[5] = target: Serine/threonine-protein kinase B-raf (Homo sapiens) (UniProt P15056); test: Inhibition of BRAF (unknown origin) assessed as residual activity at 100 nM by KINOMEscan analysis relative to control
[6] = target: Cyclin-dependent kinase 11B (Homo sapiens) (UniProt P21127); test: Inhibition of CDK11 (unknown origin) assessed as residual activity at 100 nM by KINOMEscan analysis relative to control
[7] = system: Tyrosine-protein kinase ABL1 (Homo sapiens), P00519 [H396P]; test: Inhibition of phosphorylated ABL1 H396P mutant (unknown origin) assessed as residual activity at 100 nM by KINOMEscan analysis relative to control
[8] = target: T1, Dual specificity mitogen-activated protein kinase kinase 3 (Homo sapiens) (UniProt P46734); test: Inhibition of MEK3 (unknown origin) assessed as residual activity at 100 nM by KINOMEscan analysis relative to control
T1 sequence (whole entry): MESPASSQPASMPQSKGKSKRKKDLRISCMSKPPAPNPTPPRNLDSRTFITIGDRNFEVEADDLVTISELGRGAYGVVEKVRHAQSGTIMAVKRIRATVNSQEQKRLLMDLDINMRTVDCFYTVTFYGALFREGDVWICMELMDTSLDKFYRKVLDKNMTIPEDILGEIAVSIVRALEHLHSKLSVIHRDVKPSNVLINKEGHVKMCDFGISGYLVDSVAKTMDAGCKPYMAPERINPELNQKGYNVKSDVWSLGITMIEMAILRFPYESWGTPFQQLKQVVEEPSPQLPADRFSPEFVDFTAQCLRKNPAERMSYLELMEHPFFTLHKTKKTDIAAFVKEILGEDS

[9] = target: Serine/threonine-protein kinase 16 (Homo sapiens) (UniProt O75716); test: Inhibition of STK16 (unknown origin) assessed as residual activity at 100 nM by KINOMEscan analysis relative to control
Serine/threonine-protein kinase 16 (Homo sapiens), sequence (O75716 whole entry): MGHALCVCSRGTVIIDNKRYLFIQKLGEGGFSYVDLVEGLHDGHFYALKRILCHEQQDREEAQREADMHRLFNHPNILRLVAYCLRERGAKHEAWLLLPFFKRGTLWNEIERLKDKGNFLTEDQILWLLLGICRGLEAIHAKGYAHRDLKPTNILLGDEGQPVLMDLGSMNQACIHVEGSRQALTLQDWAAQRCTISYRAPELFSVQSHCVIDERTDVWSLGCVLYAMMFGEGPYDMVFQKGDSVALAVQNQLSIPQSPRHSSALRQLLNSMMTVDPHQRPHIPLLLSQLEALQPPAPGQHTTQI

[10] = target: T2, Protein kinase C epsilon type (Homo sapiens) (UniProt Q02156); test: Inhibition of PRKCE (unknown origin) assessed as residual activity at 100 nM by KINOMEscan analysis relative to control
T2 sequence (whole entry): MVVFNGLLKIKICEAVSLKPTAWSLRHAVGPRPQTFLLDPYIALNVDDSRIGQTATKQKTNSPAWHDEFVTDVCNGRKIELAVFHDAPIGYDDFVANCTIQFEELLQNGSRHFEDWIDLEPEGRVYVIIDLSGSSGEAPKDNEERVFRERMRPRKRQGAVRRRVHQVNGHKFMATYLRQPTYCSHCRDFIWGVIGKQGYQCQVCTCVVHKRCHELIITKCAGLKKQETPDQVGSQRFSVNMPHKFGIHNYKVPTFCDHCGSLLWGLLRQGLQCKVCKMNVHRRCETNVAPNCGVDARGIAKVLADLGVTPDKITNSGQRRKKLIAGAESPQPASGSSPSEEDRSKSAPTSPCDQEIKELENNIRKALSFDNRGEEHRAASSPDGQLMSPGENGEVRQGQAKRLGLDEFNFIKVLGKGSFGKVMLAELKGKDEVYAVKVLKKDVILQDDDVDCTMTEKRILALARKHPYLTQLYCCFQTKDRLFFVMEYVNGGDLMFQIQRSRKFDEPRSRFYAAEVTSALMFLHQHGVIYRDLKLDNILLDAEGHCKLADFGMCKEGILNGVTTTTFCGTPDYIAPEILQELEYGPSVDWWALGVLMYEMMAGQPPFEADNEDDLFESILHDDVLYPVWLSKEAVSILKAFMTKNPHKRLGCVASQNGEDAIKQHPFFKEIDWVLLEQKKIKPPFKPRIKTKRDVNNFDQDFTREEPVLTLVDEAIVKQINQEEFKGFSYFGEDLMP

[11] = target: Serine/threonine-protein kinase PRP4 homolog (Homo sapiens) (UniProt Q13523); test: Inhibition of PRP4 (unknown origin) assessed as residual activity at 100 nM by KINOMEscan analysis relative to control
Serine/threonine-protein kinase PRP4 homolog (Homo sapiens), sequence (Q13523 whole entry): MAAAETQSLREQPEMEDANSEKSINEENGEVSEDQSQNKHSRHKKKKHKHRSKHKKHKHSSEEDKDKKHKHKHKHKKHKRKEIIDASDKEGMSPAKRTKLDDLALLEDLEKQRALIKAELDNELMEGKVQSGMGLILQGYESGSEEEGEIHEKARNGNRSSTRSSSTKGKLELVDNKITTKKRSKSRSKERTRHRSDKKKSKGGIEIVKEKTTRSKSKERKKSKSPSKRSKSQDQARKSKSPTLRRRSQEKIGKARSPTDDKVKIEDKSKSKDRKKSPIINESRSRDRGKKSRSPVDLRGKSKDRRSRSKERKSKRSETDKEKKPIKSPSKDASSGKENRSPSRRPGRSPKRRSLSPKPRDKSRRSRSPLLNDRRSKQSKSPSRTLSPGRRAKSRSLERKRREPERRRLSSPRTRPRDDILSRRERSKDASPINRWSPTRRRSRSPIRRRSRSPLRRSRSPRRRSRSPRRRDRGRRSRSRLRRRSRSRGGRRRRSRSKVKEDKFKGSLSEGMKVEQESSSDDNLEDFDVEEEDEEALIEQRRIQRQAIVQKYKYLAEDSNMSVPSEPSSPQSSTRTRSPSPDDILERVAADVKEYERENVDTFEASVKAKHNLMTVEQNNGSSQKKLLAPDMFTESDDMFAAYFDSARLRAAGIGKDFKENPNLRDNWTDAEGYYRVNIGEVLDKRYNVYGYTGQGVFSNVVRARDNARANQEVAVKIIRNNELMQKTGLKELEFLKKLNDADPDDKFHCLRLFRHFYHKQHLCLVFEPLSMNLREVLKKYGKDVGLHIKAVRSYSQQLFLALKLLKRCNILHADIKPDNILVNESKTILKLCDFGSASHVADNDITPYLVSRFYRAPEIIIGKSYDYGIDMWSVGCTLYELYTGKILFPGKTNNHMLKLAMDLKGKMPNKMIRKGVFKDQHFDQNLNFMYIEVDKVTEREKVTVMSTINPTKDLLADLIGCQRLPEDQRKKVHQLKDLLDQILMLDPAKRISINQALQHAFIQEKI

[12] = target: Mitogen-activated protein kinase 7 (Homo sapiens) (UniProt Q13164); test: Inhibition of ERK5 (unknown origin) assessed as residual activity at 100 nM by KINOMEscan analysis relative to control
[13] = target: Cyclin-dependent kinase 14 (Homo sapiens) (UniProt O94921); test: Inhibition of PFTK1 (unknown origin) assessed as residual activity at 100 nM by KINOMEscan analysis relative to control
Cyclin-dependent kinase 14 (Homo sapiens), sequence (O94921 whole entry): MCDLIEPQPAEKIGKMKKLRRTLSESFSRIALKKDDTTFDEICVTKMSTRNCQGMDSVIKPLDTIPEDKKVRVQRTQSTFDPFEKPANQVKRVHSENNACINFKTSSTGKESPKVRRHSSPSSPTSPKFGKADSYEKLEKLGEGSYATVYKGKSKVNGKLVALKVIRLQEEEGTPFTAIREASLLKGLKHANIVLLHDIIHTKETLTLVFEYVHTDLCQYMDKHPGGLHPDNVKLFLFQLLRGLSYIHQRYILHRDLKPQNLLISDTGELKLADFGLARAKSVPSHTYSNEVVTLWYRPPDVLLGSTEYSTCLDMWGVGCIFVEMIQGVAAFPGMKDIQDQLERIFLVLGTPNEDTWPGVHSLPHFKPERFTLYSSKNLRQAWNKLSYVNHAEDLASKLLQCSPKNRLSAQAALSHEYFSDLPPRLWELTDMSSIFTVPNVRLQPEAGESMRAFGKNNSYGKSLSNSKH

[14] = target: Dual specificity protein kinase CLK3 (Homo sapiens) (UniProt P49761); test: Inhibition of CLK3 (unknown origin) assessed as residual activity at 100 nM by KINOMEscan analysis relative to control
Dual specificity protein kinase CLK3 (Homo sapiens), sequence (P49761 whole entry, looked up): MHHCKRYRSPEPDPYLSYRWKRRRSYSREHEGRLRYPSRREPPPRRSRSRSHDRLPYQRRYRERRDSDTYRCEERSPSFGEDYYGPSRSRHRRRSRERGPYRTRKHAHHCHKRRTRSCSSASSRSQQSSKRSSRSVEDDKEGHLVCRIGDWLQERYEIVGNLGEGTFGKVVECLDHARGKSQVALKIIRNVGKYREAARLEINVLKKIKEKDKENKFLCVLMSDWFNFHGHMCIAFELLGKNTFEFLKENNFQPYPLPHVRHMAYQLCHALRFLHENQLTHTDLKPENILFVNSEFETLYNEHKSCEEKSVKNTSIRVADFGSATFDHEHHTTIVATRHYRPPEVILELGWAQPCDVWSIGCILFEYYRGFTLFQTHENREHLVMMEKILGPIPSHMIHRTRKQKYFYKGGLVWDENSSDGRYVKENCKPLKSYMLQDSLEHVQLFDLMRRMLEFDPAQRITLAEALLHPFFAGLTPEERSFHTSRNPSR

[15] = target: Leukocyte tyrosine kinase receptor (Homo sapiens) (UniProt P29376); test: Inhibition of LTK (unknown origin) assessed as residual activity at 100 nM by KINOMEscan analysis relative to control
Leukocyte tyrosine kinase receptor (Homo sapiens), sequence (P29376 whole entry): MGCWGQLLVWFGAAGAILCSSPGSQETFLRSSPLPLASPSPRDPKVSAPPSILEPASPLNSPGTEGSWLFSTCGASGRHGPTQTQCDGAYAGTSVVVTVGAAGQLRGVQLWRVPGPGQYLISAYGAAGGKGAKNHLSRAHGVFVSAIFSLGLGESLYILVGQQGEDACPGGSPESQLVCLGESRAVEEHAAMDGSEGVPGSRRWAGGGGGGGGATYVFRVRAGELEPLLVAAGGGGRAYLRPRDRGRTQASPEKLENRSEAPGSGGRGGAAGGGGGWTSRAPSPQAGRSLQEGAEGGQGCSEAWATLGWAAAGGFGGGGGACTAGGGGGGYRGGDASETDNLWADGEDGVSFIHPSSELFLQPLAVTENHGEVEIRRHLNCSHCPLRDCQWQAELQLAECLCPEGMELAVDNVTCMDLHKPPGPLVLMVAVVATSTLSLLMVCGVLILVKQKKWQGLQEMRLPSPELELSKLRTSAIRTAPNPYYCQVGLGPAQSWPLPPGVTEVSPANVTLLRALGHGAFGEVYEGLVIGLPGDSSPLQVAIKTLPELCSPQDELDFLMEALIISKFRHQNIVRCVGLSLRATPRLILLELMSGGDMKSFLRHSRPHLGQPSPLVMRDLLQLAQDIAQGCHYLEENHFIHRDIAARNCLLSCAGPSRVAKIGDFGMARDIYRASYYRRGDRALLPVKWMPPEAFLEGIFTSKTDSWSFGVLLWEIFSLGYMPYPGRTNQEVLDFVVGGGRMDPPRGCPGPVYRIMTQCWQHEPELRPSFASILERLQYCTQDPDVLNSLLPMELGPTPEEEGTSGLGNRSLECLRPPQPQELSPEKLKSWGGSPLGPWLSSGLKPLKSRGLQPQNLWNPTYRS

[16] = target: Serine/threonine-protein kinase 26 (Homo sapiens) (UniProt Q9P289); test: Inhibition of MST4 (unknown origin) assessed as residual activity at 100 nM by KINOMEscan analysis relative to control
Serine/threonine-protein kinase 26 (Homo sapiens), sequence (Q9P289 2-416 limits assumed): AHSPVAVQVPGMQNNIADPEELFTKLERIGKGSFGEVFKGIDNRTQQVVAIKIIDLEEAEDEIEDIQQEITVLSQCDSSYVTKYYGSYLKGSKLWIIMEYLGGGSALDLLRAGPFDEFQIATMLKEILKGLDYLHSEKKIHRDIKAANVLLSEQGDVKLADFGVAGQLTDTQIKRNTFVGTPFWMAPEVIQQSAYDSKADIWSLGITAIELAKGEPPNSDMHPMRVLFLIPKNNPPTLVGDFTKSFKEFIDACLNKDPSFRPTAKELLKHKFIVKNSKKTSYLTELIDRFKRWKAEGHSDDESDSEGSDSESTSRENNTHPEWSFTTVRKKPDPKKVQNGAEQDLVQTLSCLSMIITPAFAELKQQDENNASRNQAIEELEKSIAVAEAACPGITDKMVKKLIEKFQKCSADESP

Work on `COc1cc2ncnc(N[C@H](C)c3cccc4ccccc34)c2cc1OC` yielded an Activity [1] of 76%, an Activity [2] of 94% and an Activity [3] of 100%. The Activity [4] was 91%, the Activity [5] was 88% and the Activity [6] was 100%. For the same compound, the Activity [7] was 92%, the Activity [8] was 90% and the Activity [9] was 93%. It also gave an Activity [10] of 96%, an Activity [11] of 95% and an Activity [12] of 84%. The Activity [13] was 91%, the Activity [14] was 92% and the Activity [15] was 97%. It also gave an Activity [16] of 88%.
